Source: ChEMBL document CHEMBL1152547, “Synthesis and evaluation of anticancer activity of 2-arylamino-6-trifluoromethyl-3-(hydrazonocarbonyl)pyridines” (Bioorg Med Chem, 2009)

Legend:
[1] = system: PC-3; experiment: Cytotoxicity against human PC3 cells after 48 hrs by sulforhodamine B assay; assay type: functional; conditions: PC-3, 48 h
[2] = system: HOP-92; experiment: Cytotoxicity against human HOP92 cells after 48 hrs by sulforhodamine B assay; assay type: functional; conditions: HOP-92, 48 h
[3] = system: MCF7; experiment: Cytotoxicity against human MCF7 cells after 48 hrs by sulforhodamine B assay; assay type: functional; conditions: MCF7, 48 h
[4] = system: EKVX; experiment: Cytotoxicity against human EKVX cells after 48 hrs by sulforhodamine B assay; assay type: functional
[5] = system: BT-549; experiment: Cytotoxicity against human BT549 cells after 48 hrs by sulforhodamine B assay; assay type: functional; conditions: BT-549, 48 h
[6] = system: MDA-MB-468; experiment: Cytotoxicity against human MDA-MB-468 cells after 48 hrs by sulforhodamine B assay; assay type: functional; conditions: MDA-MB-468, 48 h
[7] = Toxicity in ip dosed athymic mouse assessed as body weight loss administered as single dose measured after 2 weeks; assay type: organism-based; conditions: in vivo
[8] = system: NCI-H226; experiment: Cytotoxicity against human NCI-H226 cells after 48 hrs by sulforhodamine B assay; assay type: functional; conditions: NCI-H226, 48 h
[9] = system: T47D; experiment: Cytotoxicity against human T47D cells after 48 hrs by sulforhodamine B assay; assay type: functional
[10] = system: CAKI-1; experiment: Cytotoxicity against human Caki1 cells after 48 hrs by sulforhodamine B assay; assay type: functional; conditions: CAKI-1, 48 h
[11] = Cytotoxicity against human NCI60 cells after 48 hrs by sulforhodamine B assay; assay type: functional; conditions: NCI60, 48 h, read-out: pTGI (converted)
[12] = system: SF-295; experiment: Cytotoxicity against human SF295 cells after 48 hrs by sulforhodamine B assay; assay type: functional; conditions: SF-295, 48 h
[13] = Cytotoxicity against human NCI60 cells assessed as cell growth at 10 uM after 48 hrs by sulforhodamine B assay; assay type: functional; conditions: NCI60, 48 h, read-out: Activity
[14] = Toxicity in ip dosed athymic mouse assessed as lethality administered as single dose measured after 2 weeks; assay type: organism-based; conditions: in vivo
[15] = system: TK-10; experiment: Cytotoxicity against human TK10 cells after 48 hrs by sulforhodamine B assay; assay type: functional; conditions: TK-10, 48 h
[16] = system: MDA-MB-231; experiment: Cytotoxicity against human MDA-MB-231 cells after 48 hrs by sulforhodamine B assay; assay type: functional; conditions: MDA-MB-231, 48 h

Cc1cc(Cl)ccc1Nc1nc(C(F)(F)F)ccc1C(=O)N/N=C/c1c(Cl)cccc1Cl
GI50 [1]: 229 nM | TGI ([1]; read-out: pTGI (converted)): 871 nM | GI50 [2]: 191 nM | TGI ([2]; read-out: pTGI (converted)): 537 nM | GI50 [3]: 234 nM | TGI ([3]; read-out: pTGI (converted)): 741 nM | GI50 [4]: 195 nM | TGI ([4]; read-out: pTGI (converted)): 708 nM | GI50 [5]: 195 nM | TGI ([5]; read-out: pTGI (converted)): 676 nM | GI50 [6]: 275 nM | TGI ([6]; read-out: pTGI (converted)): 851 nM | MTD at 336 h [7]: 400 mg/kg | GI50 [8]: 135 nM | TGI ([8]; read-out: pTGI (converted)): 525 nM | GI50 [9]: 224 nM | TGI ([9]; read-out: pTGI (converted)): 794 nM | GI50 [10]: 12.6 nM | CC50 ([10]; read-out: pLC50 (the source's name) (converted)): 43700 nM | TGI ([10]; read-out: pTGI (converted)): 324 nM | TGI [11]: 11700 nM | GI50 [12]: 24 nM | TGI ([12]; read-out: pTGI (converted)): 295 nM | growth at 10 µM [13]: -6.89% | MTD at 336 h [14]: 400 mg/kg | GI50 [15]: 224 nM | TGI ([15]; read-out: pTGI (converted)): 794 nM | GI50 [16]: 155 nM | TGI ([16]; read-out: pTGI (converted)): 851 nM
